# Experiment: Biodistribution of Tc-99m complexes in guinea pigs (heart uptake, heart/blood)
# Settings: 5 minutes, Tc-99m complex
# Method: The procedures used for determining biodistribution are as follows.
# Guinea Pigs--The guinea pigs are anesthetized and the technetium complex is injected into the jugular vein after a cutdown. The animals are sacrificed after 5 minutes and the organs removed and counted as with the rats.
# For guinea pigs, significant heart uptake is determined if the percentage of technetium in the heart is greater than 0.5% and the heart/blood ratio is greater than 1.
row,Structure (SMILES),Guinea Pig Heart/Blood Ratio
1,"CCCOCC(CN=Cc1ccccc1O)(CN=Cc1ccccc1O)CN=Cc1ccccc1O (stereo not drawn) [phenol, 2,2'-[[2-[[[(2-hydroxyphenyl)methylene]amino]methyl]-2-propoxymethyl-1,3-propanediyl]bis(nitrilomethylidyne)]bis-]",18
2,"COc1ccc(C=NCC(C)(CN=Cc2ccc(OC)cc2O)CN=Cc2ccc(OC)cc2O)c(O)c1 (stereo not drawn) [R5=H, R6=OCH3, R7=H, R8=H, R3=H, R4=CH3, 3-Methoxyphenol, 6,6'-[[2-[[[(4-methoxy-2-hydroxyphenyl)methylene]amino]methyl]-2-methyl-1,3-propanediyl]bis(nitrilomethylidyne)]bis-]",16

# Same assay, conditions: jugular vein injection, 5 minutes, Tc-99m complex
row,Structure (SMILES),5 Minute Guinea Pig % HT Uptake [%]
1,"CCCOCC(CN=Cc1c(O)cc(OC)cc1OC)(CN=Cc1c(O)cc(OC)cc1OC)CN=Cc1c(O)cc(OC)cc1OC (stereo not drawn) [3,5-dimethoxyphenol, 2,2'-[[2-[[[(4,6-dimethoxy-2-hydroxyphenyl)methylene]amino]methyl]-2-propoxymethyl-1,3-propanediyl]bis(nitrilomethylidyne)]bis-]",1.21
2,"COc1cc(O)c(C=NCC(C)(CN=Cc2c(O)cc(OC)c(OC)c2OC)CN=Cc2c(O)cc(OC)c(OC)c2OC)c(OC)c1OC (stereo not drawn) [3,4,5-trimethoxyphenol, 2,2'-[[2-[[[(4,5,6-trimethoxy-2-hydroxyphenyl)methylene]amino]methyl]-2-methyl-1,3-propanediyl]bis(nitrilomethylidyne)]bis-]",1.57
3,"COc1c(C)cc(O)c(C=NCC(C)(CN=Cc2c(O)cc(C)c(OC)c2C)CN=Cc2c(O)cc(C)c(OC)c2C)c1C (stereo not drawn) [3,5-dimethyl-4-methoxyphenol, 2,2'-[[2-[[[(4,6-dimethyl-5-methoxy-2-hydroxyphenyl)methylene]amino]methyl]-2-methyl-1,3-propanediyl]bis(nitrilomethylidyne)]bis-]",1.07
4,"Oc1ccccc1C=NCC(CN=Cc1ccccc1O)(CN=Cc1ccccc1O)COc1cccc2ccccc12 (stereo not drawn) [phenol, 2,2'[[2-[[[(2-hydroxyphenyl)methylene]amino]methyl]-2-α-napthoxymethyl-1,3-propanediyl]bis(nitrilomethylidyne)]bis-]",0.72
5,COCCCCC(CN=Cc1ccccc1O)(CN=Cc1ccccc1O)CN=Cc1ccccc1O (stereo not drawn),1.66
6,"COc1cc(O)c(C=NCC(C)(CN=Cc2c(O)cc(OC)c(C)c2OC)CN=Cc2c(O)cc(OC)c(C)c2OC)c(OC)c1C (stereo not drawn) [3,5-dimethoxy-4-methyl-phenol, 2,2'-[[2-[[[(4,6-dimethoxy-5-methyl-2-hydroxyphenyl)methylene]amino]methyl]-2-methyl-1,3-propanediyl]bis(nitrilomethylidyne)]bis-]",0.84
7,"CCCOCC(CN=Cc1ccccc1O)(CN=Cc1ccccc1O)CN=Cc1ccccc1O (stereo not drawn) [phenol, 2,2'-[[2-[[[(2-hydroxyphenyl)methylene]amino]methyl]-2-propoxymethyl-1,3-propanediyl]bis(nitrilomethylidyne)]bis-]",1.48
8,"Oc1ccccc1C=NCC(CN=Cc1ccccc1O)(CN=Cc1ccccc1O)COCc1ccccc1 (stereo not drawn) [phenol, 2,2'-[[2-[[[(2-hydroxyphenyl)methylene]amino]methyl]-2-phenylmethoxymethyl-1,3-propanediyl]bis(nitrilomethylidyne)]bis-]",1.60
9,"CCOc1cccc(C=NCC(C)(CN=Cc2cccc(OCC)c2O)CN=Cc2cccc(OCC)c2O)c1O (stereo not drawn) [2-ethoxyphenol, 6,6'-[[2-[[[(3-ethoxy-2-hydroxyphenyl)methylene]amino]methyl]-2-methyl-1,3-propanediyl]bis(nitrilomethylidyne)]bis-]",0.50
10,"Oc1ccccc1C=NCC(CN=Cc1ccccc1O)CN=Cc1ccccc1O (stereo not drawn) [R5=H, R6=H, R7=H, R8=H, R3=H, R4=H, phenol, 2,2'-[[2-[[[ (2-hydroxyphenyl)methylene]amino]methyl]-1,3-propanediyl]bis(nitrilomethylidyne)]bis-]",1.29
11,"CC(CN=Cc1cc(C(F)(F)F)ccc1O)(CN=Cc1cc(C(F)(F)F)ccc1O)CN=Cc1cc(C(F)(F)F)ccc1O (stereo not drawn) [R5=H, R6=H, R7=CF3, R8=H, R3=H, R4=CH3]",0.51
12,"COC(C)(C)Cc1ccc(O)c(C=NCC(C)(CN=Cc2cc(CC(C)(C)OC)ccc2O)CN=Cc2cc(CC(C)(C)OC)ccc2O)c1 (stereo not drawn) [4-(2-methoxy-2-methyl-propyl)phenol, 2,2'-[[2-[[[(5-(2-methoxy-2-methyl-propyl)-2-hydroxyphenyl)methylene]amino]methyl]-2-methyl-1,3-propanediyl]bis(nitrilomethylidyne)]bis-]",0.49
13,"C=CCOCC(CN=Cc1ccccc1O)(CN=Cc1ccccc1O)CN=Cc1ccccc1O (stereo not drawn) [phenol, 2,2'-[[2-[[[(2-hydroxyphenyl)methylene]amino]methyl]-2-propenyloxymethyl-1,3-propanediyl]bis(nitrilomethylidyne)]bis-]",1.09
14,"CCCCOCC(CN=Cc1ccccc1O)(CN=Cc1ccccc1O)CN=Cc1ccccc1O (stereo not drawn) [Phenol, 2,2'[[-[[[(2-hydroxyphenyl)methylene]amino]methyl]-2-butoxymethyl-1,3-propandiyl]bis(nitrilomethylidyne)]bis-]",1.463
15,CCCOCC(CN=Cc1ccc(OC)cc1O)(CN=Cc1ccc(OC)cc1O)CN=Cc1ccc(OC)cc1O (stereo not drawn),0.87
16,"COc1cc(O)c(C=NCC(CN=Cc2c(O)cc(OC)c(OC)c2OC)(CN=Cc2c(O)cc(OC)c(OC)c2OC)COCc2ccccc2)c(OC)c1OC (stereo not drawn) [3,4,5-trimethoxyphenol, 2,2'-[[2-[[[(4,5,6-trimethoxy-2-hydroxyphenyl)methylene]amino]methyl]-2-phenylmethoxymethyl-1,3-propanediyl]bis(nitrilomethylidyne)]bis-]",0.60
17,"COc1cc(COCC(CN=Cc2c(O)cc(OC)c(OC)c2OC)(CN=Cc2c(O)cc(OC)c(OC)c2OC)CN=Cc2c(O)cc(OC)c(OC)c2OC)cc(OC)c1OC (stereo not drawn) [3,4,5-trimethoxyphenol, 2,2'-[[2-[[[(4,5,6-trimethoxy-2-hydroxyphenyl)methylene]amino]methyl]-2-(3,4,5-trimethoxyphenyl)methoxymethyl-1,3-propanediyl]bis(nitrilomethylidyne)]bis-]",0.98

# More lines, now with the values ahead:
row,5 Minute Guinea Pig % HT Uptake [%],Structure (SMILES)
1,1.72,"CSc1ccc(C=NCC(C)(CN=Cc2ccc(SC)cc2O)CN=Cc2ccc(SC)cc2O)c(O)c1 (stereo not drawn) [R5=H, R6=SCH3, R7=H, R8=H, R3=H, R4=CH3, 3-Methylthiophenol, 6,6'-[[2-[[[(4-methylthio-2-hydroxyphenyl)methylene]amino]methyl]-2-methyl-1,3-propanediyl]bis(nitrilomethylidyne)]bis-]"
2,1.14,"Oc1ccc(F)cc1C=NCC(CN=Cc1cc(F)ccc1O)(CN=Cc1cc(F)ccc1O)COCc1ccccc1 (stereo not drawn) [4-fluorophenol, 2,2'-[[2-[[[(5-fluoro-2-hydroxyphenyl)methylene]amino]methyl]-2-phenylmethoxymethyl-1,3-propanediyl]bis(nitrilomethylidyne)]bis-]"
3,1.01,"COCCOCC(CN=Cc1ccccc1O)(CN=Cc1ccccc1O)CN=Cc1ccccc1O (stereo not drawn) [phenol, 2,2'-[[2-[[[(2-hydroxyphenyl)methylene]amino]methyl]-2-methoxyethoxymethyl-1,3-propanediyl]bis(nitrilomethylidyne)]bis-]"
4,1.30,"CC(CN=Cc1cc(F)ccc1O)(CN=Cc1cc(F)ccc1O)CN=Cc1cc(F)ccc1O (stereo not drawn) [R5=H, R6=H, R7=F, R8=H, R3=H, R4=CH3]"
5,1.55,"CCC(C)OCC(CN=Cc1ccccc1O)(CN=Cc1ccccc1O)CN=Cc1ccccc1O (stereo not drawn) [Phenol, 2,2'-[[2-[[[(2-hydroxyphenyl)methylene]amino]methyl]-(1-methylpropoxy)methyl-1,3-propanediyl]bis(nitrilomethylidyne)]bis-]"
6,2.11,"COc1ccc(C=NCC(C)(CN=Cc2ccc(OC)cc2O)CN=Cc2ccc(OC)cc2O)c(O)c1 (stereo not drawn) [R5=H, R6=OCH3, R7=H, R8=H, R3=H, R4=CH3, 3-Methoxyphenol, 6,6'-[[2-[[[(4-methoxy-2-hydroxyphenyl)methylene]amino]methyl]-2-methyl-1,3-propanediyl]bis(nitrilomethylidyne)]bis-]"
7,1.79,"CCCOCC(CN=Cc1ccc(C)cc1O)(CN=Cc1ccc(C)cc1O)CN=Cc1ccc(C)cc1O (stereo not drawn) [3-Methylphenol, 6,6'-[[2-[[[(4-methyl-2-hydroxyphenyl)methylene]amino]methyl]-2-propoxymethyl-1,3-propanediyl]bis(nitrilomethylidyne)]bis-]"
8,0.57,"CC(C)OCC(CN=Cc1ccccc1O)(CN=Cc1ccccc1O)CN=Cc1ccccc1O (stereo not drawn) [Phenol, 2,2'-[[2[[[(2-hydroxyphenyl)methylene]amino]methyl]-2-(1-methylethoxy)methyl-1,3-propanediyl]bis(nitrilomethylidyne)]bis-]"
9,1.52,"CCCOCC(CN=Cc1cc(OC)ccc1O)(CN=Cc1cc(OC)ccc1O)CN=Cc1cc(OC)ccc1O (stereo not drawn) [4-Methoxyphenyl, 2,2'-[[2-[[[(5-methoxy-2-hydroxyphenyl)methylene]amino]methyl] -2-propoxymethyl-1,3-propanediyl]bis(nitrilomethylidyne)]bis-]"
10,1.71,"CCOCC(CN=Cc1ccccc1O)(CN=Cc1ccccc1O)CN=Cc1ccccc1O (stereo not drawn) [phenol, 2,2'-[[2-[[[(2-hydroxyphenyl)methylene]amino]methyl]-2-ethoxymethyl-1,3-propanediyl]bis(nitrilomethylidyne)]bis-]"
11,0.84,"Oc1ccccc1C=NCCN(CCN=Cc1ccccc1O)CCN=Cc1ccccc1O [R5=H, R6=H, R7=H, R8=H, R3=H, R4=--, tris(2-salicylideneiminoethyl)amine]"
12,1.22,"CCCCCOCC(CN=Cc1ccccc1O)(CN=Cc1ccccc1O)CN=Cc1ccccc1O (stereo not drawn) [Phenol, 2,2'-[[2-[[[(2-hydroxyphenyl)methylene]amino]methyl]-2-pentyloxymethyl-1,3-propandiyl]bis(nitrilomethylidyne)]bis-]"
13,1.15,"CCCCCC(CN=Cc1ccccc1O)(CN=Cc1ccccc1O)CN=Cc1ccccc1O (stereo not drawn) [Phenol, 2,2'-[[2[[[(2-hydroxyphenyl)methylene]amino]methyl]-2-pentyl-1,3-propanediyl]bis(nitrilomethylidyne)]bis-]"
14,1.72,"CC(C)COCC(CN=Cc1ccccc1O)(CN=Cc1ccccc1O)CN=Cc1ccccc1O (stereo not drawn) [Phenol, 2,2'-[[2-[[[(2-hydroxyphenyl)methylene]amino]methyl]-2-(2-methylpropoxy)methyl-1,3-propandiyl]bis(nitrilomethylidyne)]-]"
